Calls of active or inactive are those of the source. Rule as the data show it, for most assays here: active = IC50 of 5 µM or less and inactive = more.

The values below come from ChEMBL document CHEMBL1201862, “PubChem BioAssay data set” (2004).

Experiment [1] can be described thus: glucagon-like peptide-1 release potency in STC-1, concentration-response, half-maximal inhibitory concentration in the STC-1 line (AID 1117345). The experiment is classed as functional, cell-based.
Experiment [2] in a line: cytotoxicity toward HT-29 cells – cell-based, CellTiter-Glo luminescence, IC50, dose response (AID 1117330). It is filed as functional. On the technique in general: Cellular ATP, detected with luciferase, serves as a proxy for viable cell number.
A short description of experiment [3]: CellTiter-Glo luminescence survival assay, SW480 colon tumor line, concentration-response curve, half-maximal inhibitory concentration (AID 1117338). The experiment is classed as functional.
Experiment [4] can be described thus: Reduced DLD-1 viability, concentration-response, CellTiter-Glo luminescence (AID 1117352). It is filed as functional.
A short description of experiment [5]: Potency on glucagon-like peptide 1 release, dose-response in NCI-H716 cell line, half maximal inhibitory concentration (AID 1117344). It is filed as functional, cell-based.
Experiment [6] can be described thus: RKO cell viability reduction, dose response, CellTiter-Glo luminescence (AID 1117322). It is filed as functional.
A short description of experiment [7]: cytotoxicity toward HCT116 cells – cell-based, CellTiter-Glo luminescence, IC50, dose response (AID 1117332). The settings on record: HCT-116. The experiment is classed as functional.
Experiment [8] can be described thus: cytotoxicity toward Colo320 cells – cell-based, CellTiter-Glo luminescence, IC50, dose response (AID 1117334). It is filed as functional. The settings on record: COLO 320.
Experiment [9] is described as follows: SNU-C1 cell viability reduction, dose response, CellTiter-Glo luminescence (AID 1117323). It is filed as functional, cell-based.
Experiment [10] in a line: HCT116 cell viability decrease, GSK3B pretreatment – CellTiter-Glo, IC50, dose response (AID 1117339). It is filed as functional. The settings on record: HCT-116.
Experiment [11] concerns the target T1, Heat shock factor protein 1 (Mus musculus, UniProt P38532).
T1 sequence (P38532 whole entry): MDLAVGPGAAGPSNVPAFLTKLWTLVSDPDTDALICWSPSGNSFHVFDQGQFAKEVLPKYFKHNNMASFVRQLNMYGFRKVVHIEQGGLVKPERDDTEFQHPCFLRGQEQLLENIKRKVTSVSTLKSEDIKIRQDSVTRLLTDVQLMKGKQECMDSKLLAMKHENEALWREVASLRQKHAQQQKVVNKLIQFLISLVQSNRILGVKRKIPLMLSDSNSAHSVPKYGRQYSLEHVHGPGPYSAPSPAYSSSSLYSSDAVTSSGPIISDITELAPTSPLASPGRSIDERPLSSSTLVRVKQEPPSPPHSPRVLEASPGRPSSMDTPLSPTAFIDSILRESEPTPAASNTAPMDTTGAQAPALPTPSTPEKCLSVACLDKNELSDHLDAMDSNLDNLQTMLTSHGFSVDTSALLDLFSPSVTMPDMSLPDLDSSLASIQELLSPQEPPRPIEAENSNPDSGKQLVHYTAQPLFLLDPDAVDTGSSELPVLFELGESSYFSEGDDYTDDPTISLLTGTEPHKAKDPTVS
The experiment in a line: enhancement of HSF1-driven luciferase signal – cell-based, NIH3T3, luminescence, dose retest, confirmation (AID 435004).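 Also: stress induced by proteasome inhibitor MG132 added 30 min after compound; luciferase reporter driven by HSF1 response element in NIH3T3 cells; actives raise luminescence as potentiators of the MG132 stress response.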 It is filed as functional.

Experiment [12] in a line: Luminescent dose response cell-based high throughput screening assay for inhibitors of the Janus kinase 2 mutant JAK2V617F. [Related pubchem assays: 1446 (Primary screen.), 1521 (Confirmation assay.), 1486 (Counter screen.)]. It is filed as functional. In general terms: Counterscreens check selectivity or assay interference.
Experiment [13] is described as follows: viability loss in Vero cells – cytotoxicity control for Vif-APOBEC3G degradation inhibitor project, dose response (AID 1117358). The experiment is classed as functional. The settings on record: Vero.
Experiment [14] has as its target T2, Mannose-6-phosphate isomerase (Homo sapiens, UniProt P34949).
T2 sequence (P34949 whole entry): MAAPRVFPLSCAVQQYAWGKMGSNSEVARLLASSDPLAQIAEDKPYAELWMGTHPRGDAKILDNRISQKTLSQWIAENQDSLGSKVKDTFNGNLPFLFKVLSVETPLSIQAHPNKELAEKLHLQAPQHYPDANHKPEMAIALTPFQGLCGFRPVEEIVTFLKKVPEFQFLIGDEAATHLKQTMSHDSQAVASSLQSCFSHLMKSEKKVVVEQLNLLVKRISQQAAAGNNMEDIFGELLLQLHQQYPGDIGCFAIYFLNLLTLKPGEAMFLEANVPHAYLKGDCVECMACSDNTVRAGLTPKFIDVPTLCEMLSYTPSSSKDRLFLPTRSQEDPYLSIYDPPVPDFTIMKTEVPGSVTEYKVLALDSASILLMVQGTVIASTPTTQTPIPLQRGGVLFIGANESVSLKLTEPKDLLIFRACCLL
The experiment in a line: MPI enzyme activity inhibition – biochemical, fluorescence intensity, coupled assay, primary screen (AID 1209).

Experiment [15] addresses DNA dC->dU-editing enzyme APOBEC-3A (Homo sapiens, UniProt P31941). Put plainly: Dose Response confirmation of small molecule APOBEC3A DNA Deaminase Inhibitors via a fluorescence-based single-stranded DNA deaminase assay. [Related pubchem assays (depositor defined):AID493011, AID493024]. The experiment is classed as functional.
In experiment [16] the target is DNA dC->dU-editing enzyme APOBEC-3G (Homo sapiens, UniProt Q9HC16). It is filed as functional.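 Also: Dose-response counterscreen measuring inhibition of APOBEC3G DNA deaminase activity, run while confirming APOBEC3A inhibitors.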
Chain of DNA dC->dU-editing enzyme APOBEC-3G (Q9HC16 whole entry): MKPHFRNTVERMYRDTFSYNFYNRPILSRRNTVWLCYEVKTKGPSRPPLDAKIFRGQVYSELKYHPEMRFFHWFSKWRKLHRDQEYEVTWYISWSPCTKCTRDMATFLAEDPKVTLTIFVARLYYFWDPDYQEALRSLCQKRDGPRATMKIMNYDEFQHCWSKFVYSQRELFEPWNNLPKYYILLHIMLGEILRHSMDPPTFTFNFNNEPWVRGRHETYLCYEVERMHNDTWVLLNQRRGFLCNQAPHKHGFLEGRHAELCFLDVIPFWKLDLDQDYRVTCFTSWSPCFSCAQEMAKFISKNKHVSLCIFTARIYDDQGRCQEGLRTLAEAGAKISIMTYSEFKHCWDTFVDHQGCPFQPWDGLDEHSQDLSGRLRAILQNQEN

Chain of DNA dC->dU-editing enzyme APOBEC-3A (P31941 whole entry): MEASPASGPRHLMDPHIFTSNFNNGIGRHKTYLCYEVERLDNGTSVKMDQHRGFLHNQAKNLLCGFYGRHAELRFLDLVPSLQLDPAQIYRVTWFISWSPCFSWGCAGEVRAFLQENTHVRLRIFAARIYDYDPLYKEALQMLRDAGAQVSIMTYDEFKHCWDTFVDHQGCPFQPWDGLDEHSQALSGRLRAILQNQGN

Take `c1ccc2c(c1)Sc1ccccc1N2CC1CN2CCC1CC2` (stereo unspecified) [MEQUITAZINE]: the IC50 (usually the midpoint of a concentration-inhibition curve) in experiment [1] is > 40 µM (inactive); in experiment [2], > 20 µM (inactive); in [3], 5.43 µM (inactive); in [4] it was > 20 µM (inactive); in [5] it was > 40 µM (inactive); in [6], 8.46 µM (inactive). Also, the IC50 in experiment [7], in [8], in experiment [9] and in experiment [10] was > 20 µM (inactive) in each case.
With `O=C(/C(=N/N=C/c1ccc(O)c(O)c1)c1ccccc1)c1ccccc1`, the EC50 (in general, the concentration at which the effect is half-maximal) in [11] is > 260 µM (inactive). Also, the IC50 in [12] is 1.8 µM (active).
Regarding `S=C(Nc1ccc(Oc2ccccc2)cc1)NC1CCCCC1`, the CC50 – broadly, the concentration at which the toxic effect on the cells reaches its halfway point – in [13] was 30.1 µM (active).
Consider `C[N+]12CCC(CC1)C(C#N)(N1CCOCC1)C2` (stereo unspecified), for which the values for the IC50 in experiment [14], in experiment [15] and in [16] were > 50 µM (not active), 4.57 µM (active) and 4.38 µM (active), respectively.
